Assay results: ChEMBL document CHEMBL3044839, “Bisdesmosidic saponins from Securidaca longepedunculata roots: evaluation of deterrency and toxicity to Coleopteran storage pests” (2009)
Active and inactive are the calls of the source. The rule behind the calls is not given here.

Assays:
Callosobruchus maculatus [1] = experiment: Insecticidal activity against Callosobruchus maculatus in compound pretreated stored cowpea commodities assessed as decrease in egg hatching on the surface of seeds at 2.5 mg; type: functional, organism-based
Sitophilus zeamais [2] = experiment: Insecticidal activity against adult Sitophilus zeamais in compound pretreated stored maize commodities assessed as mortality at 2.5 mg measured after 2 weeks; type: functional, organism-based
Sitophilus zeamais [3] = experiment: Insecticidal activity against adult Sitophilus zeamais in compound pretreated stored maize commodities assessed as decrease in number of damaged seeds at 2.5 mg measured after 2 weeks (reference value: >95%); type: functional; set-up: scale not given: the % may be the effect or the level left
Callosobruchus maculatus [4] = experiment: Insecticidal activity against Callosobruchus maculatus in compound pretreated stored cowpea commodities assessed as decrease in number of adults emerging in F1 generation at 2.5 mg; type: functional, organism-based
Callosobruchus maculatus [5] = experiment: Insecticidal activity against adult Callosobruchus maculatus in compound pretreated stored cowpea commodities assessed as decrease in number of oviposted eggs on the surface of seeds at 2.5 mg by choice bioassay; type: functional, organism-based

COc1ccc(C=CC(=O)O[C@@H]2[C@H](O)[C@@H](O[C@@H]3O[C@@H](C)[C@H](O[C@@H]4OC[C@@H](O)[C@H](O[C@@H]5OC[C@H](O)[C@H](O)[C@H]5O)[C@H]4O)[C@@H](O[C@@H]4OC[C@](O)(CO)[C@H]4O)[C@H]3O)[C@H](OC(=O)[C@]34CCC(C)(C)C[C@H]3C3=CC[C@@H]5[C@@]6(C)C[C@H](O)[C@H](O[C@@H]7O[C@H](CO)[C@@H](O)[C@H](O)[C@H]7O)[C@@](C)(C(=O)O)[C@@H]6CC[C@@]5(C)[C@]3(C)CC4)O[C@@H]2C)cc1
Activity (Callosobruchus maculatus [1]): Active | mortality (Sitophilus zeamais [2]): Active | Activity (Sitophilus zeamais [3]): <35% | Activity (Callosobruchus maculatus [4]): Active | Activity (Callosobruchus maculatus [5]): Active
